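Exposure lasted 48 hours, with cells grown in 96-well plates and compounds tested at five concentrations. Abbreviation: GI50, concentration required for 50% inhibition of growth. TGI marks complete inhibition of growth.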
Experiments:
Assay in all cases: DTP human tumour cell line panel, 48 h
[1] = system: 786-0 renal
[2] = system: A549 NSCLC
[3] = system: ACHN renal
[4] = system: BT-549 breast
[5] = system: CAKI-1 renal
[6] = system: CCRF-CEM leukemia
[7] = system: COLO 205 colon
[8] = system: DU-145 prostate
[9] = system: EKVX NSCLC
[10] = system: HCC-2998 colon
[11] = system: HCT-116 colon
[12] = system: HL-60(TB) leukemia
[13] = system: HOP-62 NSCLC
[14] = system: HOP-92 NSCLC
[15] = system: HT29 colon
[16] = system: K-562 leukemia
[17] = system: KM12 colon
[18] = system: LOX IMVI melanoma
[19] = system: M14 melanoma
[20] = system: MCF7 breast
[21] = system: MDA-MB-231 breast
[22] = system: MDA-MB-435
[23] = system: MOLT-4 leukemia
[24] = system: NCI-H226 lung
[25] = system: NCI-H23 lung
[26] = system: NCI-H460 lung
[27] = system: NCI-H522 lung
[28] = system: NCI/ADR-RES ovarian
[29] = system: OVCAR-3 ovarian
[30] = system: OVCAR-4 ovarian
[31] = system: OVCAR-5 ovarian
[32] = system: OVCAR-8 ovarian
[33] = system: PC-3 prostate
[34] = system: RPMI-8226 leukemia
[35] = system: RXF 393 renal
[36] = system: SF-268 CNS
[37] = system: SF-295 CNS
[38] = system: SF-539 CNS
[39] = system: SK-MEL-2 melanoma
[40] = system: SK-MEL-28 melanoma
[41] = system: SK-MEL-5 melanoma
[42] = system: SK-OV-3 ovarian
[43] = system: SN12C renal
[44] = system: SNB-19 CNS
[45] = system: SNB-75 CNS
[46] = system: SR leukemia
[47] = system: SW-620 colon
[48] = system: T-47D breast
[49] = system: TK-10 renal
[50] = system: U251 CNS
[51] = system: UACC-257 melanoma
[52] = system: UACC-62 melanoma
[53] = system: UO-31 renal
[54] = system: A498 renal
[55] = system: HCT-15 colon
[56] = system: IGROV1 ovarian
[57] = system: MALME-3M melanoma
[58] = system: HS 578T breast

CCOC(=O)/N=c1\ssc(Cl)c1Cl
GI50 [1]: 12.8 µM
TGI [1]: > 100 µM
GI50 [2]: 24.1 µM
TGI [2]: 73.8 µM
GI50 [3]: 1.95 µM
TGI [3]: 4.37 µM
GI50 [4]: 2.77 µM
TGI [4]: 7.21 µM
GI50 [5]: 14.9 µM
TGI [5]: 29.4 µM
GI50 [6]: 0.646 µM
TGI [6]: > 100 µM
GI50 [7]: 19 µM
TGI [7]: 44.8 µM
GI50 [8]: 4.72 µM
TGI [8]: 19.4 µM
GI50 [9]: 19.9 µM
TGI [9]: 42.7 µM
GI50 [10]: 2.83 µM
TGI [10]: 5.39 µM
GI50 [11]: 3.35 µM
TGI [11]: > 100 µM
GI50 [12]: 6.41 µM
TGI [12]: > 100 µM
GI50 [13]: 43.7 µM
TGI [13]: > 100 µM
GI50 [14]: 5.66 µM
TGI [14]: > 100 µM
GI50 [15]: 4.43 µM
TGI [15]: > 100 µM
GI50 [16]: 1.93 µM
TGI [16]: > 100 µM
GI50 [17]: 16.7 µM
TGI [17]: 35.9 µM
GI50 [18]: 1.9 µM
TGI [18]: 3.99 µM
GI50 [19]: 7.44 µM
TGI [19]: > 100 µM
GI50 [20]: 3.54 µM
TGI [20]: 16.8 µM
GI50 [21]: 6.95 µM
TGI [21]: 28.7 µM
GI50 [22]: 15.2 µM
TGI [22]: 30.8 µM
GI50 [23]: 3.06 µM
TGI [23]: > 100 µM
GI50 [24]: 27.8 µM
TGI [24]: > 100 µM
GI50 [25]: 3.25 µM
TGI [25]: 11.3 µM
GI50 [26]: 21.3 µM
TGI [26]: 54.3 µM
GI50 [27]: 3.87 µM
TGI [27]: 95.9 µM
GI50 [28]: 4.11 µM
TGI [28]: > 100 µM
GI50 [29]: 6.53 µM
TGI [29]: 20.9 µM
GI50 [30]: 35.5 µM
TGI [30]: > 100 µM
GI50 [31]: 4.86 µM
TGI [31]: 28.1 µM
GI50 [32]: 19.7 µM
TGI [32]: 55.1 µM
GI50 [33]: 15.8 µM
TGI [33]: 36 µM
GI50 [34]: 3.52 µM
TGI [34]: > 100 µM
GI50 [35]: 3.01 µM
TGI [35]: 10.6 µM
GI50 [36]: 17.4 µM
TGI [36]: 41.6 µM
GI50 [37]: 16.7 µM
TGI [37]: 33.2 µM
GI50 [38]: 2.87 µM
TGI [38]: 8.97 µM
GI50 [39]: 12.1 µM
TGI [39]: 60.4 µM
GI50 [40]: 3.9 µM
TGI [40]: 27.1 µM
GI50 [41]: 3.9 µM
TGI [41]: 19.1 µM
GI50 [42]: 20.6 µM
TGI [42]: 45.6 µM
GI50 [43]: 6.7 µM
TGI [43]: 25.8 µM
GI50 [44]: 23.7 µM
TGI [44]: 56.9 µM
GI50 [45]: 30.6 µM
TGI [45]: 87.7 µM
GI50 [46]: 0.414 µM
TGI [46]: > 100 µM
GI50 [47]: 0.599 µM
TGI [47]: 14.7 µM
GI50 [48]: 17.2 µM
TGI [48]: 42.6 µM
GI50 [49]: 4.72 µM
TGI [49]: 18.5 µM
GI50 [50]: 3.34 µM
TGI [50]: 13.8 µM
GI50 [51]: 15.3 µM
TGI [51]: 30.7 µM
GI50 [52]: 14 µM
TGI [52]: 29.6 µM
GI50 [53]: 4.97 µM
TGI [53]: > 100 µM

Nn1nnc2ccccc21
TGI [1]: > 100 µM
TGI [54]: > 100 µM
TGI [2]: > 100 µM
TGI [3]: > 100 µM
TGI [4]: > 100 µM
TGI [6]: > 100 µM
TGI [7]: > 100 µM
TGI [8]: > 100 µM
TGI [9]: > 100 µM
TGI [10]: > 100 µM
TGI [11]: > 100 µM
TGI [55]: > 100 µM
TGI [12]: > 100 µM
TGI [13]: > 100 µM
TGI [14]: > 100 µM
TGI [15]: > 100 µM
TGI [56]: > 100 µM
TGI [16]: > 100 µM
TGI [18]: > 100 µM
TGI [19]: > 100 µM
TGI [57]: > 100 µM
TGI [20]: > 100 µM
TGI [21]: > 100 µM
TGI [22]: > 100 µM
TGI [23]: > 100 µM
TGI [24]: > 100 µM
TGI [25]: > 100 µM
TGI [26]: > 100 µM
TGI [28]: > 100 µM
TGI [29]: > 100 µM
TGI [30]: > 100 µM
TGI [31]: > 100 µM
TGI [32]: > 100 µM
TGI [33]: > 100 µM
TGI [34]: > 100 µM
TGI [36]: > 100 µM
TGI [37]: > 100 µM
TGI [40]: > 100 µM
TGI [41]: > 100 µM
TGI [42]: > 100 µM
TGI [43]: > 100 µM
TGI [44]: > 100 µM
TGI [45]: > 100 µM
TGI [46]: > 100 µM
TGI [47]: > 100 µM
TGI [48]: > 100 µM
TGI [49]: > 100 µM
TGI [50]: > 100 µM
TGI [51]: > 100 µM
TGI [52]: > 100 µM
TGI [53]: > 100 µM

O=C(NCCCn1ccnc1[N+](=O)[O-])C(=O)NCCCn1ccnc1[N+](=O)[O-]
TGI [1]: > 100 µM
TGI [3]: > 100 µM
TGI [6]: > 100 µM
TGI [9]: > 100 µM
TGI [10]: > 100 µM
TGI [11]: > 100 µM
TGI [55]: > 100 µM
TGI [12]: > 100 µM
TGI [13]: > 100 µM
TGI [58]: > 100 µM
TGI [15]: > 100 µM
TGI [16]: > 100 µM
TGI [17]: > 100 µM
TGI [57]: > 100 µM
TGI [20]: > 100 µM
TGI [23]: > 100 µM
TGI [24]: > 100 µM
TGI [25]: > 100 µM
TGI [26]: > 100 µM
TGI [27]: > 100 µM
TGI [29]: > 100 µM
TGI [31]: > 100 µM
TGI [32]: > 100 µM
TGI [33]: > 100 µM
TGI [34]: > 100 µM
TGI [36]: > 100 µM
TGI [37]: > 100 µM
TGI [38]: > 100 µM
TGI [39]: > 100 µM
TGI [40]: > 100 µM
TGI [43]: > 100 µM
TGI [45]: > 100 µM
TGI [46]: > 100 µM
TGI [49]: > 100 µM
TGI [50]: > 100 µM
TGI [51]: > 100 µM

From PubChem BioAssay (NCI)
